# According to US20090181010A1, “Arginase II: a target for the prevention of atherosclerosis” (The Johns Hopkins University, priority 2006, published 2009):
# Numbered stars: 1 amine (or outer) side, 2 acyl side, 3 side chain; on linkers, the order of the positions; unused ones are H or OH. Bridge positions count the residues as written; N and C are the ends. Square brackets hold non-standard residues; d marks the D form. Peptide text beside a SMILES is read from it. I, II: the chains in the order shown. Actinocin(9to1) = Cc1c2oc3c(C)ccc(C(=O)[*:1])c3nc-2c(C(=O)[*:2])c(N)c1=O; NMeV = CN[C@H](C(=O)O)C(C)C; Sar = CNCC(=O)O
# Experiments:
# [1] = tested on: NO production; assay: NO measurement (NOx, Griess reaction) in HAECs; type: cell-based, human
# Procedure: (§1) Human aortic endothelial cells (HAECs) were purchased from Cascade Biologics (Portland, Oreg.) and maintained in Medium M200 containing low serum growth supplement according to the supplier's protocol. Confluent HAECs were incubated with starvation medium (M200 plus only 0.5% fetal bovine serum) for 24 hr prior to the experimental protocols.
# (§2) NO was estimated as nitrate/nitrite (NOx) by Griess reaction after conversion of nitrate to nitrite by nitrate reductase, using the Nitric Oxide Assay Kit (Calbiochem). The concentration of NOx from cell lysates was expressed as nmol/mg proteins.
# [2] = tested on: arginase; assay: Arginase activity assay in HAEC lysates; type: cell-based, human
# Procedure: as §1
# (§3) Cell lysates were prepared with lysis buffer (50 mM Tris-HCl, pH7.5, 0.1 mM EDTA and protease inhibitors) by brief vigorous vortexing for 30 min and incubation and centrifuging for 20 min at 14,000 g at 4° C. The supernatants are used for arginase activity as described previously^18. Arginase activity from aortic vessels was assayed as described above following homogenization in lysis buffer.
# [3] = tested on: HAECs; assay: Immunofluorescence of arginase II and beta-tubulin in HAECs; type: cell-based, human; settings: HAEC, nocodazole 50 μM, 30 minutes
# Procedure: HAECs were cultured on coverslips coated with 25 µg/ml human plasma fibronectin (Invitrogen). Cells were then fixed and permeabilized with 3% paraformaldehyde and 0.5% Triton X-100 in PBS for 2 minutes, followed by 20 minutes of 3% paraformaldehyde alone. Samples were prepared for immunofluorescence analysis by incubating with a rabbit polyclonal antisera against arginase II (Santa Cruz Biotechnology, 1:50) and a mouse monoclonal antibody against β-tubulin (BD Biosciences, 1:50) for 30 minutes at 37° C. They were then rinsed in tris-buffered saline and incubated with Cy5-conjugated anti-rabbit IgG and Cy3-conjugated anti-mouse IgG (Chemicon, Temecula, Calif.). Images were acquired using a Nikon TE-200 epifluorescence microscope (with a 60× objective, and collected using Openlab software (Improvision, Lexington, Mass.) and an internally cooled 12-bit CCD camera (CoolsnapHQ, Photometrics, Tucson, Ariz.).
# [4] = tested on: arginase II; assay: Western blot of arginase II protein in HAECs; type: cell-based, human; settings: HAEC, cycloheximide 10 μM co-incubation
# Procedure: Transient transfection of arginase-SiRNA (Santa Cruz Biotechnology) was performed with Oligofectamine reagent according to instructions provided by the supplier (Invitrogen). In brief, 8 μL of Oligofectamine was added to 17 μL Opti-MEM I reduced serum medium (Gibco), incubated for 5 minutes at room temperature, mixed with 180 μL Opti-MEM medium containing different amount of SiRNA, and further incubated for 15 minutes. The SiRNA-Oligofectamine complex was then overlaid on cells (each well of a 6 well culture dish). After incubation for 6 h, endothelial growth medium containing 3 times serum was added for making normal growth medium of 1× serum concentration. Transfected cells were then further incubated for 36 hr and starved for 24 hr prior to experiments and then stimulated with OxLDL for additional 6 hours.
# Cells were lysed in SDS sample buffer (62.5 mM Tris, pH6.8, 2% SDS, and 10% Glycerol) and then sonicated for 5 s to reduce sample viscosity. Each sample was resolved by 10% SDS-PAGE, transferred to PVDF membrane (Bio-rad), analysed with antibodies according to the supplier's protocol, and visualized with peroxidase and an enhanced-chemiluminescence system (Pierce). Normalization was performed using the anti-β-tubulin antibody (BD bioscience, 1:1,000). Densitometric analysis of bands was performed with NIH ImageJ program.
# [5] = tested on: NO production; assay: NO production in rat aortic rings; settings: rat aortic rings E+, pre-incubation with BEC
# Procedure: FIGS. 7A-B depict arginase dependent endothelial dysfunction in OxLDL treated rat aorta. Arginase inhibition restores endothelial function and increases NO production in rat aortic rings. […] The increase in arginase activity was blocked by preincubation with BEC ([…], *p=0.0007, **p<0.0001 vs. untreated control; #p=0.0003 vs. OxLDL; n=5).
# as §2
# [6] = target: T1, human arginase II (Homo sapiens, UniProt P78540); settings: cited from earlier work
# T1 sequence (P78540 23-354): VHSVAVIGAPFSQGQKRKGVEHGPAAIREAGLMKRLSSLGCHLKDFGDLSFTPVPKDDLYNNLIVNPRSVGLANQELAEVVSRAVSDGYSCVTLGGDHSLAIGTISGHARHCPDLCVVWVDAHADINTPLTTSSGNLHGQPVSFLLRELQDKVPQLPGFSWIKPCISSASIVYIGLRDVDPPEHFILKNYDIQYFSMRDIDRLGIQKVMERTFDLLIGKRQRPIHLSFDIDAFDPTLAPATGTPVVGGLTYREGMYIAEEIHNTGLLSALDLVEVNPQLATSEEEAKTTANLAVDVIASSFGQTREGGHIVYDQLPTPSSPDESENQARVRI
# [7] = tested on: NO production; assay: Aortic NO production (griess method) in Apo E knockout mice; type: in vivo; settings: Apo E KO mice, BEC treated
# [8] = tested on: arginase; assay: Aortic arginase activity in Apo E knockout mice; type: in vivo; settings: Apo E KO mice, BEC treated
# Procedure: (§4) FIGS. 8A-B Arginase inhibition decreases vascular stiffness and restores endothelial function in Apo E knockout mice. 16 WT mice were randomized to receive a normal or high cholesterol (HC) diet. […] Aortic Pulse wave velocity (PWV) (measured by 20 MHz pulsed Doppler from arch to abdominal aorta (4 cm) was used to measure vascular stiffness before and after pump implanatation.
# as §3
# [9] = tested on: Apo E knockout mice; assay: Aortic pulse wave velocity (vascular stiffness) in Apo E knockout mice; type: in vivo; settings: Apo E KO mice, HC diet
# Description: as §4
# [10] = tested on: arginase; assay: Arginase activity in rat aortic rings; settings: rat aortic rings E+, preincubation with BEC
# Procedure: as §3
# [11] = tested on: arginase II; assay: Quantitative PCR of arginase II expression in HAECs; type: cell-based, human; settings: HAEC
# Procedure: Total RNA from Ox-LDL-stimulated HAEC was prepared using Trizol Reagent according to the supplier's protocol (Gibco). To exclude contamination with genomic DNA, total RNA was treated with RNase-free DNase (Roche). PCR reaction was performed in iCycler optical system (Bio-rad) using SYBR green PCR master mix. The reverse transcriptional PCR primers are as follows: Arginase I: Forward 5′-GGC AAG GTG GCA GAA GTC A-3′, Reverse 5′-TGGTTGTCAGTGGAGTGTTG-3′, size of PCR products=163 bp; Arginase II: Forward 5′-CTATCAGCACTGGATCTTGTTG-3′, Reverse 5′-GGGAGTAGGAAGTTGGTCATAG-3′, size of PCR products=156 bp. 18S rRNA gene (Forward 5′-CGGCGACGACCCATTCGAAC-3′, Reverse 5′-GAATCGAACCCTGATTCCCCGTC-3′, size of PCR product=99 bp) was amplified as a control.
smiles,measurement,setting,value
COC(=O)Nc1nc2ccc(C(=O)c3cccs3)cc2[nH]1 [nocodazole],NOS measurement,"[1]; HAEC, nocodazole treatment",reciprocal decrease
same,arginase activity,"[2]; nocodazole 5 μmol/L, control 40.4±7.63",100.7±11.17 μmol Urea/mg protein/min
same,arginase activity,"[2]; nocodazole 50 μmol/L, control 40.4±7.63",134.3±0.28 μmol Urea/mg protein/min
same,arginase activity,[2]; nocodazole in combination with Ox-LDL,141.9±7.07 μmol Urea/mg protein/min
same,arginase II localization (immunofluorescence),[3],diffuse arginase localization
C[C@@H]1C[C@@H]([C@H](O)CC2CC(=O)NC(=O)C2)C(=O)[C@@H](C)C1 [cycloheximide],block of OxLDL-induced arginase II protein increase,[4],completely blocked
"N[C@@H](CSCCB(O)O)C(=O)O [BEC, S-(2-boronoethyl)-L-cysteine]",vascular NO production following OxLDL treatment,[5],increased vascular NO production
same,Ki,[6],210 nM
same,effect on HAEC NOx production,"[1]; BEC alone, no OxLDL",no effect
same,prevention of OxLDL-dependent decrease in NO,"[1]; HAEC, BEC 10 μmol/L, all time points from 4 hrs",prevents
same,"NOx production, OxLDL+BEC vs. control","[1]; HAEC, OxLDL 50 μg/ml + BEC 10 μmol/L, 4 hrs",102%
same,NOx production,"[1]; HAEC, OxLDL + BEC 10 μmol/L, 4 hrs, control 14.24±0.95",14.58±0.94 nmol/mg proteins
same,aortic NO production,[7],restoration of NO production to WT
same,aortic arginase activity,[8],significant decrease
same,Aortic pulse wave velocity (PWV),"[9]; BEC group, before pump implantation",4.9±0.22 m/sec
same,Aortic pulse wave velocity (PWV),[9]; after 4 weeks BEC (1 mg/mice) by osmotic infusion pump,4.0±0.25 m/sec
same,OxLDL-induced increase in arginase activity,[10],blocked
C/C(=C\c1csc(C)n1)[C@@H]1C[C@@H]2O[C@]2(C)CCC[C@H](C)[C@H](O)[C@@H](C)C(=O)C(C)(C)[C@@H](O)CC(=O)O1 [epothilone B],endothelial NO production,"[1]; HAEC, OxLDL + epothilone B 0.1 μmol/L",8.05±0.47 nmol/mg proteins
same,basal endothelial cell NOx,"[1]; HAEC, epothilone B alone",small but not statistically significant increase
same,arginase activity,[2]; OxLDL + epothilone B 0.1 μmol/L,73.55±2.82 μmol Urea/mg protein/min
"Cc1c2oc3c(C)ccc(C(=O)N[C@@H]4C(=O)N[C@H](C(C)C)C(=O)N5CCC[C@H]5C(=O)N(C)CC(=O)N(C)[C@@H](C(C)C)C(=O)O[C@@H]4C)c3nc-2c(C(=O)N[C@@H]2C(=O)N[C@H](C(C)C)C(=O)N3CCC[C@H]3C(=O)N(C)CC(=O)N(C)[C@@H](C(C)C)C(=O)O[C@@H]2C)c(N)c1=O [actinomysin D] (I: T[dV]P[Sar][NMeV] / II: T[dV]P[Sar][NMeV]; ester I:1-I:C, II:1-II:C; linker I:N-II:N via Actinocin(9to1))","arginase II expression (quantitative PCR), relative to control 1.0±0.06",[11]; OxLDL 4 hrs + actinomysin D 10 μg/ml,1.1±0.15
same,block of OxLDL-induced arginase II expression,[11]; actinomysin D 10 μg/ml,completely blocked
